Source: ChEMBL document CHEMBL1201862, “PubChem BioAssay data set” (2004)
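The compound was tested at five concentrations on cells cultured in 96-well plates, with a 48-hour exposure period. Here, GI50 denotes the concentration required for 50% inhibition of growth.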 Active and inactive are the calls of the source. Cut-off read from the data, not from the text of the source: active = GI50 up to about 1.1 µM and inactive = higher.

Columns and labels:
Assay in all cases: NCI-60 cell line screen, 48 h
PC-3 = test system: PC-3
NCI-H522 = test system: NCI-H522
MDA-MB-435 = test system: MDA-MB-435
NCI-H23 = test system: NCI-H23
LOX IMVI = test system: LOX IMVI
IGROV-1 = test system: IGROV-1
RPMI-8226 = test system: RPMI-8226
NCI-H226 = test system: NCI-H226
MCF7 = test system: MCF7
SF-539 = test system: SF-539
OVCAR-8 = test system: OVCAR-8
HL-60 = test system: HL-60
NCI/ADR-RES = test system: NCI/ADR-RES
HOP-92 = test system: HOP-92
ACHN = test system: ACHN
SR = test system: SR
786-0 = test system: 786-0
TK-10 = test system: TK-10
M14 = test system: M14
HCT-116 = test system: HCT-116
CCRF-CEM = test system: CCRF-CEM
EKVX = test system: EKVX
OVCAR-5 = test system: OVCAR-5
SK-MEL-2 = test system: SK-MEL-2
NCI-H460 = test system: NCI-H460
SN12C = test system: SN12C
UACC-257 = test system: UACC-257
SF-268 = test system: SF-268
MOLT-4 = test system: MOLT-4
K562 = test system: K562
UO-31 = test system: UO-31
A498 = test system: A498
A549 = test system: A549
SK-OV-3 = test system: SK-OV-3
HT-29 = test system: HT-29
Hs-578T = test system: Hs-578T
KM12 = test system: KM12
T47D = test system: T47D
HOP-62 = test system: HOP-62
SK-MEL-28 = test system: SK-MEL-28
CAKI-1 = test system: CAKI-1
HCT-15 = test system: HCT-15
SK-MEL-5 = test system: SK-MEL-5
MDA-N = test system: MDA-N
SF-295 = test system: SF-295
SNB-75 = test system: SNB-75
SNB-19 = test system: SNB-19
HCC 2998 = test system: HCC 2998
OVCAR-4 = test system: OVCAR-4
UACC-62 = test system: UACC-62
Malme-3M = test system: Malme-3M
COLO 205 = test system: COLO 205
U-251 = test system: U-251
MDA-MB-231 = test system: MDA-MB-231
DU-145 = test system: DU-145
RXF 393 = test system: RXF 393
SW-620 = test system: SW-620
BT-549 = test system: BT-549

Structure (SMILES): Cn1cnc2c(NCc3ccccc3)nc(NCCO)nc21 [OLOMOUCINE]
- GI50 (PC-3): 98.2 µM (inactive)
- GI50 (NCI-H522): 51.4 µM (inactive)
- GI50 (MDA-MB-435): 78.7 µM (inactive)
- GI50 (NCI-H23): 59.6 µM (inactive)
- GI50 (LOX IMVI): 24 µM (inactive)
- GI50 (IGROV-1): 42.3 µM (inactive)
- GI50 (RPMI-8226): 53.8 µM (inactive)
- GI50 (NCI-H226): 51.3 µM (inactive)
- GI50 (MCF7): 39.7 µM (inactive)
- GI50 (SF-539): 42.2 µM (inactive)
- GI50 (OVCAR-8): 66.2 µM (inactive)
- GI50 (HL-60): 36.9 µM (inactive)
- GI50 (NCI/ADR-RES): > 93.8 µM (inactive)
- GI50 (HOP-92): 61.2 µM (inactive)
- GI50 (ACHN): 35.9 µM (inactive)
- GI50 (SR): 29.7 µM (inactive)
- GI50 (786-0): 60.7 µM (inactive)
- GI50 (TK-10): 63.8 µM (inactive)
- GI50 (M14): 78.9 µM (inactive)
- GI50 (HCT-116): 34.8 µM (inactive)
- GI50 (CCRF-CEM): 54.6 µM (inactive)
- GI50 (EKVX): 94.4 µM (inactive)
- GI50 (OVCAR-5): 53 µM (inactive)
- GI50 (SK-MEL-2): 98.9 µM (inactive)
- GI50 (NCI-H460): 104 µM (inactive)
- GI50 (SN12C): 90.2 µM (inactive)
- GI50 (UACC-257): > 95.3 µM (inactive)
- GI50 (SF-268): 49 µM (inactive)
- GI50 (MOLT-4): 70.1 µM (inactive)
- GI50 (K562): 107 µM (inactive)
- GI50 (UO-31): 31.4 µM (inactive)
- GI50 (A498): 103 µM (inactive)
- GI50 (A549): 43.9 µM (inactive)
- GI50 (SK-OV-3): > 95.5 µM (inactive)
- GI50 (HT-29): 71.4 µM (inactive)
- GI50 (Hs-578T): 69.5 µM (inactive)
- GI50 (KM12): 35 µM (inactive)
- GI50 (T47D): 50.5 µM (inactive)
- GI50 (HOP-62): 29.3 µM (inactive)
- GI50 (SK-MEL-28): 52.8 µM (inactive)
- GI50 (CAKI-1): 33.7 µM (inactive)
- GI50 (HCT-15): 41.3 µM
- GI50 (SK-MEL-5): 40.6 µM (inactive)
- GI50 (MDA-N): 79.4 µM (inactive)
- GI50 (SF-295): 41.1 µM (inactive)
- GI50 (SNB-75): 21.3 µM (inactive)
- GI50 (SNB-19): 48.6 µM (inactive)
- GI50 (HCC 2998): 79.1 µM (inactive)
- GI50 (OVCAR-4): 94.2 µM (inactive)
- GI50 (UACC-62): 32.6 µM (inactive)
- GI50 (Malme-3M): 98.2 µM (inactive)
- GI50 (COLO 205): 30.1 µM (inactive)
- GI50 (U-251): 64.4 µM (inactive)
- GI50 (MDA-MB-231): 92.7 µM (inactive)
- GI50 (DU-145): 34.1 µM (inactive)
- GI50 (RXF 393): 67 µM (inactive)
- GI50 (SW-620): 43.5 µM (inactive)
- GI50 (BT-549): 53.1 µM (inactive)
